In general, pEC50 refers to −log10 of the EC50, conventionally taken in molar units.

The target in one experiment is T1, mouse GIP receptor (Mus musculus, UniProt Q0P543).
T1 sequence (Q0P543 19-460): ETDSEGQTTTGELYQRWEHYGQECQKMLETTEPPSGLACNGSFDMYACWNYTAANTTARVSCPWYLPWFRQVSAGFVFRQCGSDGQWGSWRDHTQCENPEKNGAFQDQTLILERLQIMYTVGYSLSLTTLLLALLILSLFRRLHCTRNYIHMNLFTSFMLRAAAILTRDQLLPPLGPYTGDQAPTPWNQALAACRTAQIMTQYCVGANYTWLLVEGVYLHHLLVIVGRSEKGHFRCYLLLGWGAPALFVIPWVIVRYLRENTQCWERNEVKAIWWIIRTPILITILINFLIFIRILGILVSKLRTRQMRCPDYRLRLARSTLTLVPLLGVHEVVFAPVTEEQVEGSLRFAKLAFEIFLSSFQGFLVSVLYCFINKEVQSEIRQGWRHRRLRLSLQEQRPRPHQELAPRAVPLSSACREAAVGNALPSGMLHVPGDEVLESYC
In words: cell-based.

In the next experiment the target is T2, mouse GLP-1 receptor (Mus musculus, UniProt O35659).
T2 sequence (O35659 22-463): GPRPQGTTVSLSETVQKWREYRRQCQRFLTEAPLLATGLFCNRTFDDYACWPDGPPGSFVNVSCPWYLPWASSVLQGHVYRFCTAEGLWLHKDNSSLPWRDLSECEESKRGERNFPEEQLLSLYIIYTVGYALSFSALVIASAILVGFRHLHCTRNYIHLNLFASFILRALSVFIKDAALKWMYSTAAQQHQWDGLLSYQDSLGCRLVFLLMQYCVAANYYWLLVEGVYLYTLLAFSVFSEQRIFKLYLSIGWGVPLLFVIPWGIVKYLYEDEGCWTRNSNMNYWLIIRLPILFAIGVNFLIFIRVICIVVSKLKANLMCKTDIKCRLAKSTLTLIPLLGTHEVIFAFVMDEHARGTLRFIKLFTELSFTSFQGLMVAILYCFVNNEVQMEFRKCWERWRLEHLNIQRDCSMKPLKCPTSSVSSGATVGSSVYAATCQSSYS

In a further experiment the target is human GLP-1 receptor (Homo sapiens, UniProt P43220). In words: cell-based. The settings on record: hGLP-1R.
human GLP-1 receptor, sequence (P43220 24-463): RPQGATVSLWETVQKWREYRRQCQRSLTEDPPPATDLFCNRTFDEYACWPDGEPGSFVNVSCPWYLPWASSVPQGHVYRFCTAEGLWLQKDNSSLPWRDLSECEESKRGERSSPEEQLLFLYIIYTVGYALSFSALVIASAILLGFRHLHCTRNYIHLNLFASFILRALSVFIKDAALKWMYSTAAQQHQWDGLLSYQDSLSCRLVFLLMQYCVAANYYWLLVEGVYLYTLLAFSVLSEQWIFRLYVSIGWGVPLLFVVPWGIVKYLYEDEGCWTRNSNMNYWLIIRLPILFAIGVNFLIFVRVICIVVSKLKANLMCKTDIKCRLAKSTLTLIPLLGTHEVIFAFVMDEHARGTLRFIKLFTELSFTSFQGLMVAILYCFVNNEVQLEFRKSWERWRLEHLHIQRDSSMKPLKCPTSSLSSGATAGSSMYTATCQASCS
In a further experiment the target is human glucagon receptor (Homo sapiens, UniProt P47871). The experiment is described as follows: cell-based.
human glucagon receptor, sequence (P47871 26-477): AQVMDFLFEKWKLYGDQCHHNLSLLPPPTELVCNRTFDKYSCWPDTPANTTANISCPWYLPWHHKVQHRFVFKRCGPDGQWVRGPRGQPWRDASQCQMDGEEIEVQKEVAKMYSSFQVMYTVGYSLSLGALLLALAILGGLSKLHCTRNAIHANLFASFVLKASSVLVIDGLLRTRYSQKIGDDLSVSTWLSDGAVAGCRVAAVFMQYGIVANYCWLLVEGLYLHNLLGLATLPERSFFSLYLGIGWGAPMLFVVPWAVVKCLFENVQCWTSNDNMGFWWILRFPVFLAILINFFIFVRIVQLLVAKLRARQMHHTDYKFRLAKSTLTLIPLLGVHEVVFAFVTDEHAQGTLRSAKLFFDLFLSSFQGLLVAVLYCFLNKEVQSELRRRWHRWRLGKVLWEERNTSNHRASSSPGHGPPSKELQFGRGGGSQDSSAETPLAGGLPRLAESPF

Molecules are shown by their SMILES. pEC50: −log10 of the molar value. Starred links: 1 amine or outer side, 2 acyl side, 3 side chain; linkers in the order of their positions; H or OH if unused. Non-standard residues stand in square brackets, D forms with d. Residues, ends and D or L forms follow the SMILES beside them. Groups on a side chain read outwards from the residue. *: point of attachment. C20 diacid = O=C(O)CCCCCCCCCCCCCCCCCCC(=O)*; γGlu = O=C(O)[C@H](CCC(=O)[*:2])N[*:1]; εLys = N[C@@H](CCCCN[*:1])C(=O)[*:2]; Trx = NC[C@H]1CC[C@H](C(=O)O)CC1; AEEA = NCCOCCOCC(=O)O; Aib = CC(C)(N)C(=O)O

Consider `CC[C@H](C)[C@H](NC(=O)[C@H](CO)NC(=O)[C@H](Cc1ccc(O)cc1)NC(=O)[C@H](CC(=O)O)NC(=O)[C@H](CO)NC(=O)[C@@H](NC(=O)[C@H](Cc1ccccc1)NC(=O)[C@@H](NC(=O)CNC(=O)[C@H](CCC(=O)O)NC(=O)C(C)(C)NC(=O)[C@@H](N)Cc1ccc(O)cc1)[C@@H](C)O)[C@@H](C)O)C(=O)N[C@@H](Cc1ccc(O)cc1)C(=O)N[C@@H](CC(C)C)C(=O)N[C@@H](CCC(=O)O)C(=O)N[C@@H](CCCCN)C(=O)N[C@@H](CCCCNC(=O)[C@@H](N)CCCCNC(=O)[C@@H](N)CCCCNC(=O)CC[C@H](NC(=O)[C@H]1CC[C@H](CNC(=O)CCCCCCCCCCCCCCCCCCC(=O)O)CC1)C(=O)O)C(=O)N[C@@H](C)C(=O)N[C@@H](C)C(=O)NC(C)(C)C(=O)N[C@@H](CCC(=O)O)C(=O)N[C@@H](Cc1ccccc1)C(=O)N[C@H](C(=O)N[C@@H](CC(N)=O)C(=O)N[C@@H](Cc1c[nH]c2ccccc12)C(=O)N[C@@H](CC(C)C)C(=O)N[C@@H](CC(C)C)C(=O)N[C@@H](C)C(=O)NCC(=O)NCC(=O)N1CCC[C@H]1C(=O)N[C@@H](CO)C(=O)N[C@@H](CO)C(=O)NCC(=O)N[C@@H](C)C(=O)N1CCC[C@H]1C(=O)N1CCC[C@H]1C(=O)N1CCC[C@H]1C(=O)N[C@@H](CO)C(N)=O)C(C)C` [Compound 23] (H-Y[Aib]EGTFTSDYSIYLEKK([εLys-εLys-γGlu-Trx-C20 diacid])AA[Aib]EFVNWLLAGGPSSGAPPPS-NH2; N-terminus assumed), for which the pEC50 was 10.76 at mouse GIP receptor; 11.43 on mouse GLP-1 receptor; 11.40 at human GLP-1 receptor (CRE Luc 0% HSA EC50, 0% HSA); 9.75 at human GLP-1 receptor (CRE Luc 1% HSA EC50, 1% HSA); < 8.00 on human glucagon receptor.

In the case of `CC[C@H](C)[C@H](NC(=O)[C@H](CO)NC(=O)[C@H](Cc1ccc(O)cc1)NC(=O)[C@H](CC(=O)O)NC(=O)[C@H](CO)NC(=O)[C@@H](NC(=O)[C@H](Cc1ccccc1)NC(=O)[C@@H](NC(=O)CNC(=O)[C@H](CCC(=O)O)NC(=O)C(C)(C)NC(=O)[C@@H](N)Cc1ccc(O)cc1)[C@@H](C)O)[C@@H](C)O)C(=O)N[C@@H](Cc1ccc(O)cc1)C(=O)N[C@@H](CC(C)C)C(=O)N[C@@H](CCC(=O)O)C(=O)N[C@@H](CCCCN)C(=O)N[C@@H](CCC(N)=O)C(=O)N[C@@H](C)C(=O)N[C@@H](C)C(=O)NC(C)(C)C(=O)N[C@@H](CCCCNC(=O)[C@@H](N)CCCCNC(=O)[C@@H](N)CCCCNC(=O)CC[C@H](NC(=O)[C@H]1CC[C@H](CNC(=O)CCCCCCCCCCCCCCCCCCC(=O)O)CC1)C(=O)O)C(=O)N[C@@H](Cc1ccccc1)C(=O)N[C@H](C(=O)N[C@@H](CCC(N)=O)C(=O)N[C@@H](Cc1c[nH]c2ccccc12)C(=O)N[C@@H](CC(C)C)C(=O)N[C@@H](CC(C)C)C(=O)N[C@@H](CCC(=O)O)C(=O)NCC(=O)NCC(=O)N1CCC[C@H]1C(=O)N[C@@H](CO)C(=O)N[C@@H](CO)C(=O)NCC(=O)N[C@@H](C)C(=O)N1CCC[C@H]1C(=O)N1CCC[C@H]1C(=O)N1CCC[C@H]1C(=O)N[C@@H](CO)C(N)=O)C(C)C` [Compound 24] (H-Y[Aib]EGTFTSDYSIYLEKQAA[Aib]K([εLys-εLys-γGlu-Trx-C20 diacid])FVQWLLEGGPSSGAPPPS-NH2; N-terminus assumed), the pEC50 was 10.39 at mouse GIP receptor; 11.00 at mouse GLP-1 receptor; 11.33 on human GLP-1 receptor (CRE Luc 0% HSA EC50, 0% HSA); 9.94 at human GLP-1 receptor (CRE Luc 1% HSA EC50, 1% HSA); < 8.00 at human glucagon receptor.

As to `CC[C@H](C)[C@H](NC(=O)[C@H](CO)NC(=O)[C@H](Cc1ccc(O)cc1)NC(=O)[C@H](CC(=O)O)NC(=O)[C@H](CO)NC(=O)[C@@H](NC(=O)[C@H](Cc1ccccc1)NC(=O)[C@@H](NC(=O)CNC(=O)[C@H](CCC(=O)O)NC(=O)C(C)(C)NC(=O)[C@@H](N)Cc1ccc(O)cc1)[C@@H](C)O)[C@@H](C)O)C(=O)N[C@@H](Cc1ccc(O)cc1)C(=O)N[C@@H](CC(C)C)C(=O)N[C@@H](CCC(=O)O)C(=O)N[C@@H](CCCCNC(=O)COCCOCCNC(=O)COCCOCCNC(=O)CC[C@H](NC(=O)CCCCCCCCCCCCCCCCCCC(=O)O)C(=O)O)C(=O)N[C@@H](CCC(N)=O)C(=O)N[C@@H](C)C(=O)N[C@@H](C)C(=O)NC(C)(C)C(=O)N[C@@H](CCC(=O)O)C(=O)N[C@@H](Cc1ccccc1)C(=O)N[C@H](C(=O)N[C@@H](CC(N)=O)C(=O)N[C@@H](Cc1c[nH]c2ccccc12)C(=O)N[C@@H](CC(C)C)C(=O)N[C@@H](CC(C)C)C(=O)N[C@@H](C)C(=O)NCC(=O)NCC(=O)N1CCC[C@H]1C(=O)N[C@@H](CO)C(=O)N[C@@H](CO)C(=O)NCC(=O)N[C@@H](C)C(=O)N1CCC[C@H]1C(=O)N1CCC[C@H]1C(=O)N1CCC[C@H]1C(=O)N[C@@H](CO)C(N)=O)C(C)C` [Compound 29] (H-Y[Aib]EGTFTSDYSIYLEK([AEEA-AEEA-γGlu-C20 diacid])QAA[Aib]EFVNWLLAGGPSSGAPPPS-NH2; N-terminus assumed), the negative-log EC50 (pEC50) at mouse GIP receptor was 10.29; on mouse GLP-1 receptor it was 11.74; at human GLP-1 receptor (CRE Luc 0% HSA EC50, 0% HSA), 11.21; on human GLP-1 receptor (CRE Luc 1% HSA EC50, 1% HSA), 9.37; on human glucagon receptor it was < 8.00.

In the case of `CC[C@H](C)[C@H](NC(=O)[C@H](CO)NC(=O)[C@H](Cc1ccc(O)cc1)NC(=O)[C@H](CC(=O)O)NC(=O)[C@H](CO)NC(=O)[C@@H](NC(=O)[C@H](Cc1ccccc1)NC(=O)[C@@H](NC(=O)CNC(=O)[C@H](CCC(=O)O)NC(=O)C(C)(C)NC(=O)[C@@H](N)Cc1ccc(O)cc1)[C@@H](C)O)[C@@H](C)O)C(=O)N[C@@H](Cc1ccc(O)cc1)C(=O)N[C@@H](CC(C)C)C(=O)N[C@@H](CCC(=O)O)C(=O)N[C@@H](CCCCN)C(=O)N[C@@H](CCCCNC(=O)[C@@H](N)CCCCNC(=O)[C@@H](N)CCCCNC(=O)CC[C@H](NC(=O)CCCCCCCCCCCCCCCCCCC(=O)O)C(=O)O)C(=O)N[C@@H](C)C(=O)N[C@@H](C)C(=O)NC(C)(C)C(=O)N[C@@H](CCC(=O)O)C(=O)N[C@@H](Cc1ccccc1)C(=O)N[C@H](C(=O)N[C@@H](CC(N)=O)C(=O)N[C@@H](Cc1c[nH]c2ccccc12)C(=O)N[C@@H](CC(C)C)C(=O)N[C@@H](CC(C)C)C(=O)N[C@@H](C)C(=O)NCC(=O)NCC(=O)N1CCC[C@H]1C(=O)N[C@@H](CO)C(=O)N[C@@H](CO)C(=O)NCC(=O)N[C@@H](C)C(=O)N1CCC[C@H]1C(=O)N1CCC[C@H]1C(=O)N1CCC[C@H]1C(=O)N[C@@H](CO)C(N)=O)C(C)C` [Compound 31] (H-Y[Aib]EGTFTSDYSIYLEKK([εLys-εLys-γGlu-C20 diacid])AA[Aib]EFVNWLLAGGPSSGAPPPS-NH2; N-terminus assumed), the pEC50 at mouse GIP receptor was 10.87; at mouse GLP-1 receptor, 11.89; at human GLP-1 receptor (CRE Luc 0% HSA EC50, 0% HSA), 11.72; on human GLP-1 receptor (CRE Luc 1% HSA EC50, 1% HSA), 10.27; on human glucagon receptor it was 8.02.

The values above are taken from US20230346961A1, “GLP-1 AND GIP RECEPTOR CO-AGONISTS” (Novo Nordisk A/S, priority 2020, published 2023).
